Some test systems named below: SF-295 CNS; A549 NSCLC; HCT-15 colon; KM12 colon; TK-10 renal; SF-539 CNS; SK-MEL-5 melanoma; SF-268 CNS; SK-MEL-28 melanoma; MDA-MB-435.
Holding throughout (experiment): DTP human tumour cell line panel, 48 h

SMILES strings stand for the structures. Where “and” joins values, the source holds several entries; their conditions need not be identical. Identical values can stand only once.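 Values below derive from 48-hour exposures of cells grown in 96-well plates, with endpoints linearly interpolated between the two concentrations bracketing the appropriate inhibition level. Here, GI50 denotes the concentration required for 50% inhibition of growth. TGI: total growth inhibition.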

For `Nc1c2ccccc2nc2c(C(=O)Nc3ccc(S(N)(=O)=O)cc3)cccc12`, the TGI in the assay with SF-295 CNS, in the assay with A549 NSCLC, with HCT-15 colon, in the assay with KM12 colon, in the assay with TK-10 renal and with SF-539 CNS was over 100 µM throughout. Also, the total growth inhibition concentration (TGI) in the assay on SK-MEL-5 melanoma, in the assay on SF-268 CNS and in the assay on SK-MEL-28 melanoma was over 100 µM in each case.

On to `CC(C)(C)N=NC(C)(C)N=C=O`, for which the total growth inhibition concentration (TGI) with SF-295 CNS, in the assay on A549 NSCLC, in the assay with HCT-15 colon, in the assay on KM12 colon, in the assay on TK-10 renal and in the assay on SF-539 CNS was over 100 µM throughout. For the same compound, the TGI in the assay on SK-MEL-5 melanoma, in the assay with SF-268 CNS and in the assay on SK-MEL-28 melanoma was over 100 µM in each case.

For the compound `CC(C)(C)OC(=O)N[C@@H](Cc1ccccc1)C(=O)N(Cc1ccccc1)C1(C(=O)NCc2ccccc2)CCN(Cc2ccccc2)CC1`, the GI50 in the assay on SF-295 CNS is 2.9 µM; with A549 NSCLC, 3.85 µM; in the assay on HCT-15 colon, 3.16 µM; in the assay on KM12 colon, 4.12 µM; in the assay on TK-10 renal, 3.17 µM; with MDA-MB-435, 3.04 µM. Also, the GI50 in the assay with SK-MEL-5 melanoma is 1.73 µM; with SF-268 CNS, 4.88 µM. The total growth inhibition concentration (TGI) in the assay with SF-295 CNS was over 100 µM; with A549 NSCLC it was over 100 µM; in the assay with HCT-15 colon it was over 100 µM; in the assay with KM12 colon it was over 100 µM; with TK-10 renal, 70.3 µM; with MDA-MB-435 it was over 100 µM. The values for the TGI in the assay with SK-MEL-5 melanoma and in the assay with SF-268 CNS were 3.29 µM and over 100 µM, respectively.

`O=c1/c(=N\Nc2ccccc2)c2cccc3ccc4cccc1c4c32`: the concentration for total growth inhibition (TGI) in the assay with SF-295 CNS, with A549 NSCLC, in the assay with HCT-15 colon, with KM12 colon, in the assay with TK-10 renal and with MDA-MB-435 was over 100 µM throughout. The TGI with SK-MEL-5 melanoma, with SF-268 CNS and in the assay with SK-MEL-28 melanoma was over 100 µM each time.

As to `CC1c2[nH]c3ccccc3c2CCN1O` (stereo not drawn), the total growth inhibition concentration (TGI) in the assay on SF-295 CNS, in the assay with A549 NSCLC, with HCT-15 colon, with KM12 colon, with TK-10 renal and in the assay on SF-539 CNS was over 100 µM in each case. Besides, the concentration for total growth inhibition (TGI) in the assay with SK-MEL-5 melanoma, in the assay with SF-268 CNS and with SK-MEL-28 melanoma was over 100 µM throughout.

Take `COc1cc2cnc3c4cc(OCc5ccccc5)ccc4ccc3c2cc1OC`: the total growth inhibition concentration (TGI) in the assay with SF-295 CNS was 82.9 µM; in the assay on A549 NSCLC it was over 100 µM; in the assay on HCT-15 colon it was over 100 µM; in the assay on KM12 colon, over 100 µM; with TK-10 renal, 44 µM; in the assay with SF-539 CNS it was over 100 µM. Further, the concentration for total growth inhibition (TGI) in the assay on SK-MEL-5 melanoma was 76 µM; with SF-268 CNS, over 100 µM; in the assay with SK-MEL-28 melanoma it was over 100 µM.

`C[N+](C)=c1ccc2nc3c(cc(NCCCNc4cc5oc6cc(=[N+](C)C)ccc-6nc5c5ccccc45)c4ccccc43)oc-2c1`: the GI50 in the assay on SF-295 CNS was 4.64 µM; in the assay on HCT-15 colon, 1.9 µM; in the assay on KM12 colon, 2.55 µM; in the assay with TK-10 renal it was 17.3 µM; in the assay on SF-539 CNS, 1.73 µM; in the assay with MDA-MB-435, 1.76 µM. In addition, the GI50 with SK-MEL-5 melanoma is 1.41 µM; with SF-268 CNS it was 2.17 µM; in the assay on SK-MEL-28 melanoma it was 3.77 µM. The TGI in the assay on SF-295 CNS was determined as 31.8 µM; with HCT-15 colon it was 6.33 µM; with KM12 colon, 8.81 µM; with TK-10 renal, 39.3 µM; in the assay with SF-539 CNS it was 3.76 µM; with MDA-MB-435 it was 3.29 µM. The total growth inhibition concentration (TGI) in the assay with SK-MEL-5 melanoma amounted to 2.79 µM; in the assay with SF-268 CNS, 9.2 µM; with SK-MEL-28 melanoma, 14.7 µM.

Regarding `O=C(/C=C/C12c3ccccc3C(c3ccccc31)C1C(=O)NC(=O)C12)c1ccccc1` (stereo not drawn), the GI50 was 2.65 µM in the assay on A549 NSCLC; 1.64 µM in the assay on HCT-15 colon; 2.72 µM in the assay on KM12 colon; 2.79 µM in the assay with TK-10 renal; 1.63 µM in the assay on SF-539 CNS; 2.16 µM with MDA-MB-435. The GI50 with SK-MEL-5 melanoma was 1.72 µM; in the assay with SF-268 CNS it was 2.17 µM; in the assay with SK-MEL-28 melanoma, 1.88 µM. For the same compound, the TGI stood at 11.8 µM with A549 NSCLC; 6.84 µM in the assay with HCT-15 colon; 11 µM with KM12 colon; 6.34 µM with TK-10 renal; 3.02 µM with SF-539 CNS; 5.9 µM in the assay on MDA-MB-435. Moreover, the TGI in the assay with SK-MEL-5 melanoma was found to be 3.1 µM; with SF-268 CNS it was 6.55 µM; with SK-MEL-28 melanoma, 3.63 µM.

`O/N=C/c1ccc(O)c(O)c1`: the TGI in the assay on SF-295 CNS, in the assay with A549 NSCLC, with HCT-15 colon, in the assay on KM12 colon, in the assay with TK-10 renal and with SF-539 CNS was over 100 µM each time. Moreover, the TGI with SK-MEL-5 melanoma, in the assay on SF-268 CNS and in the assay with SK-MEL-28 melanoma was over 100 µM each time.

For the compound `COc1ccc([C@@H]2OC(=O)C3C2C(=O)O[C@H]3c2ccc(OC)c(OC)c2)cc1OC` (stereo partly drawn), the total growth inhibition concentration (TGI) in the assay with SF-295 CNS, with A549 NSCLC, with HCT-15 colon, in the assay on KM12 colon, with TK-10 renal and in the assay on SF-539 CNS was over 100 µM in each case. The TGI in the assay on SK-MEL-5 melanoma, in the assay with SF-268 CNS and with SK-MEL-28 melanoma was over 100 µM throughout.

Regarding `COC(=O)[C@H](Cc1cn(C)cn1)NC(=O)[C@H](Cc1ccccc1)NC(=O)Nc1cc(C(F)(F)F)cc(C(F)(F)F)c1`, the GI50 in the assay on SF-295 CNS was 16.4 µM; in the assay on A549 NSCLC it was 16.1 µM; with HCT-15 colon it was 16.9 µM; with KM12 colon it was 13.5 µM; in the assay on SF-539 CNS it was 17.2 µM; in the assay with MDA-MB-435, 15.3 µM. In addition, the GI50 in the assay with SK-MEL-5 melanoma was 16.2 µM; with SF-268 CNS, 4.26 µM and 10.2 µM; in the assay on SK-MEL-28 melanoma, 17.9 µM. The TGI turned out to be 31.5 µM with SF-295 CNS; 31.6 µM with A549 NSCLC; 42.4 µM in the assay with HCT-15 colon; 28.2 µM in the assay on KM12 colon; 33 µM in the assay on SF-539 CNS; 29.4 µM in the assay with MDA-MB-435. For the same compound, the TGI in the assay with SK-MEL-5 melanoma was found to be 30.7 µM; in the assay with SF-268 CNS, 23.8 µM; in the assay with SK-MEL-28 melanoma, 35.2 µM.

Source of the values: PubChem BioAssay (NCI).
